Experimental data taken from patent US20190314382A1, “COMPOUNDS AND PHARMACEUTICAL COMPOSITIONS THEREOF FOR THE TREATMENT OF INFLAMMATORY DISEASES” (Galapagos NV, priority 2016, published 2019).

Assays:
Type in all cases: in vivo, human
Settings in all cases: observed case
IL-1β = test: Biomarker study in RA subjects: serum IL-1β, Luminex 18-Plex
Method: (§1) Double-blind, placebo-controlled add on study in subjects with moderately to severely active RA who have an inadequate response to MTX (oral or parenteral).
(§2) 595 subjects randomized to one of 6 dose regimens of Compound 1 (dosed as a [Compound 1:HCl:3H2O]) (3 dose levels administered either once or twice daily) or placebo on top of each subject's stable dose of MTX.
(§3) Compound 1 (dosed as a [Compound 1:HCl:3H2O]) is dosed for twelve weeks once daily (q.d.) (50 mg, 100 mg or 200 mg) or twice daily (b.i.d.) (25 mg, 50 mg or 100 mg); or placebo.
(§4) 18 parameters from human serum samples (GM-CSF, IFNγ, IL-1β, IL-2, IL-4, IL-5, IL-6, IL-7, IL-8, IL-10, IL-12 (p70), IL-13, IL-17A, IL-21, IL-23, MIP-1α, MIP-1β and TNF-α) are analyzed on a Luminex Plateform (BioPlex® L200) using a Luminex 18-Plex Kit (Millipore: HSTCMAG-28SK).
(§5) Coupled beads react with the sample containing the biomarker of interest. […] Phycoerythrin (PE) serves as a fluorescent indicator.
(§6) The concentration of bead bound analyte is proportional to the MFI (Median Fluorescent Intensity) and back-calculated from interpolation with the calibration curve fitted with a 4 or 5 parameters logistic (4PL or 5PL) regression model selected during method pre-validation.
(§7) Treatment effect was assessed using an ANCOVA model on the changes from baseline, with factors: treatment, baseline value of the PD marker, geographical region and previous use of biologics.

IL-2 = test: Biomarker study in RA subjects: serum IL-2, Luminex 18-Plex
Method: as §1, §2, §3, §4, §5, §6, §7

IL-8 = test: Biomarker study in RA subjects: serum IL-8, Luminex 18-Plex
Method: as §1, §2, §3, §4, §5, §6, §7

IL-17A = test: Biomarker study in RA subjects: serum IL-17A, Luminex 18-Plex
Method: as §1, §2, §3, §4, §5, §6, §7

IL-21 = test: Biomarker study in RA subjects: serum IL-21, Luminex 18-Plex
Method: as §1, §2, §3, §4, §5, §6, §7

[1] = 50 mg bid, Week 4, N = 73, RA subjects on MTX
[2] = 50 mg bid, Week 12, N = 73, RA subjects on MTX
[3] = 100 mg bid, Week 4, N = 79, RA subjects on MTX
[4] = 100 mg bid, Week 12, N = 79, RA subjects on MTX
[5] = 100 mg qd, Week 4, N = 68, RA subjects on MTX
[6] = 100 mg qd, Week 12, N = 68, RA subjects on MTX
[7] = 200 mg qd, Week 4, N = 75, RA subjects on MTX
[8] = 200 mg qd, Week 12, N = 75, RA subjects on MTX

O=C(Nc1nc2cccc(-c3ccc(CN4CCS(=O)(=O)CC4)cc3)n2n1)C1CC1 [Compound 1, cyclopropanecarboxylic acid {5-[4-(1,1-dioxo-thiomorpholin-4-ylmethyl)-phenyl]-[1,2,4]triazolo[1,5-a]pyridin-2yl}-amide]
IL-1βb Mean change from baseline at Week 4 (IL-1β; [1]): 1.4 pg/mL | IL-1βb Mean change from baseline at Week 12 (IL-1β; [2]): -0.9 pg/mL | IL-1βb Mean change from baseline at Week 4 (IL-1β; [3]): -1.0 pg/mL | IL-1βb Mean change from baseline at Week 12 (IL-1β; [4]): -1.8 pg/mL | IL-1βb Mean change from baseline at Week 4 (IL-1β; [5]): -0.6 pg/mL | IL-1βb Mean change from baseline at Week 12 (IL-1β; [6]): -1.2 pg/mL | IL-1βb Mean change from baseline at Week 4 (IL-1β; [7]): -0.6 pg/mL | IL-1βb Mean change from baseline at Week 12 (IL-1β; [8]): -1.6 pg/mL | IL-2 Mean change from baseline at Week 4 (IL-2; [1]): -0.2 pg/mL | IL-2 Mean change from baseline at Week 12 (IL-2; [2]): -1.9 pg/mL | IL-2 Mean change from baseline at Week 4 (IL-2; [3]): -2.3 pg/mL | IL-2 Mean change from baseline at Week 12 (IL-2; [4]): -4.1 pg/mL | IL-2 Mean change from baseline at Week 4 (IL-2; [5]): -1.9 pg/mL | IL-2 Mean change from baseline at Week 12 (IL-2; [6]): -3.5 pg/mL | IL-2 Mean change from baseline at Week 4 (IL-2; [7]): -2.0 pg/mL | IL-2 Mean change from baseline at Week 12 (IL-2; [8]): -3.3 pg/mL | IL-8 Mean change from baseline at Week 4 (IL-8; [1]): 2.3 pg/mL | IL-8 Mean change from baseline at Week 12 (IL-8; [2]): 6.9 pg/mL | IL-8 Mean change from baseline at Week 4 (IL-8; [3]): -1.8 pg/mL | IL-8 Mean change from baseline at Week 12 (IL-8; [4]): 2.4 pg/mL | IL-8 Mean change from baseline at Week 4 (IL-8; [5]): 4.1 pg/mL | IL-8 Mean change from baseline at Week 12 (IL-8; [6]): 0.7 pg/mL | IL-8 Mean change from baseline at Week 4 (IL-8; [7]): -2.0 pg/mL | IL-8 Mean change from baseline at Week 12 (IL-8; [8]): -1.6 pg/mL | IL-17α Mean change from baseline at Week 4 (IL-17A; [1]): -4.4 pg/mL | IL-17α Mean change from baseline at Week 12 (IL-17A; [2]): -3.3 pg/mL | IL-17α Mean change from baseline at Week 4 (IL-17A; [3]): 3.9 pg/mL | IL-17α Mean change from baseline at Week 12 (IL-17A; [4]): -1.9 pg/mL | IL-17α Mean change from baseline at Week 4 (IL-17A; [5]): -5.9 pg/mL | IL-17α Mean change from baseline at Week 12 (IL-17A; [6]): -7.4 pg/mL | IL-17α Mean change from baseline at Week 4 (IL-17A; [7]): -1.6 pg/mL | IL-17α Mean change from baseline at Week 12 (IL-17A; [8]): -0.9 pg/mL | IL-21 Mean change from baseline at Week 4 (IL-21; [1]): -0.1 pg/mL | IL-21 Mean change from baseline at Week 12 (IL-21; [2]): -1.6 pg/mL | IL-21 Mean change from baseline at Week 4 (IL-21; [3]): -1.6 pg/mL | IL-21 Mean change from baseline at Week 12 (IL-21; [4]): -2.8 pg/mL | IL-21 Mean change from baseline at Week 4 (IL-21; [5]): -0.3 pg/mL | IL-21 Mean change from baseline at Week 12 (IL-21; [6]): 0.5 pg/mL | IL-21 Mean change from baseline at Week 4 (IL-21; [7]): -1.4 pg/mL | IL-21 Mean change from baseline at Week 12 (IL-21; [8]): -2.3 pg/mL
